In the supplement of paper PMC10307832:

What was measured:
Assay in all cases: relative viability (nuclei count vs DMSO), 5 days (fraction); higher = more cells survive
[1] = compound: CO[C@H]1C[C@@H]2CC[C@@H](C)[C@@](O)(O2)C(=O)C(=O)N2CCCC[C@H]2C(=O)O[C@H]([C@H](C)C[C@@H]2CC[C@@H](OCCO)[C@H](OC)C2)CC(=O)[C@H](C)/C=C(\C)[C@@H](O)[C@@H](OC)C(=O)[C@H](C)C[C@H](C)/C=C/C=C/C=C/1C [Everolimus]
Summary of the method: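 Lung cancer cell lines in 1536-well plates were exposed by pinning to five library-drug doses (not always all listed) √10 apart, following an overnight hold at 37 °C. MetaXpress counted Hoechst-stained nuclei from 4× images taken after 5 days without medium change. Viability is the median ratio of treated-well to vehicle-well nuclei across plates. Plates required control CV below 25% and at least one doubling.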

[2] = compound: CO[C@H]1C[C@@H]2CC[C@@H](C)[C@@](O)(O2)C(=O)C(=O)N2CCCC[C@H]2C(=O)O[C@H]([C@H](C)C[C@@H]2CC[C@@H](OCCO)[C@H](OC)C2)CC(=O)[C@H](C)/C=C(\C)[C@@H](O)[C@@H](OC)C(=O)[C@H](C)C[C@H](C)/C=C/C=C/C=C/1C [Everolimus] + Cc1cc(Nc2cc(N3CCN(C)CC3)nc(Sc3ccc(NC(=O)C4CC4)cc3)n2)n[nH]1 [Tozasertib] (partner 0.1 µM)
Summary of the method: (§1)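 Relative viability equals treated-well nuclei counts divided by vehicle-well nuclei counts. Counts came from 4× images of lung cancer cell lines grown in 1536-well plates for 5 days after pin-tool dosing on the day after seeding. Dosing used one drug alone or a fixed anchor-drug dose plus five library-drug doses (not always all listed) in √10 steps, and values are medians of duplicate plates.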

[3] = compound: CO[C@H]1C[C@@H]2CC[C@@H](C)[C@@](O)(O2)C(=O)C(=O)N2CCCC[C@H]2C(=O)O[C@H]([C@H](C)C[C@@H]2CC[C@@H](OCCO)[C@H](OC)C2)CC(=O)[C@H](C)/C=C(\C)[C@@H](O)[C@@H](OC)C(=O)[C@H](C)C[C@H](C)/C=C/C=C/C=C/1C [Everolimus] + CCNC(=O)c1noc(-c2cc(C(C)C)c(O)cc2O)c1-c1ccc(CN2CCOCC2)cc1 [Luminespib] (partner 0.01 µM)
Summary of the method: as §1

[4] = compound: CO[C@H]1C[C@@H]2CC[C@@H](C)[C@@](O)(O2)C(=O)C(=O)N2CCCC[C@H]2C(=O)O[C@H]([C@H](C)C[C@@H]2CC[C@@H](OCCO)[C@H](OC)C2)CC(=O)[C@H](C)/C=C(\C)[C@@H](O)[C@@H](OC)C(=O)[C@H](C)C[C@H](C)/C=C/C=C/C=C/1C [Everolimus] + COc1cccc2cc(-c3nc([C@H]4CC[C@H](C(=O)O)CC4)n4ncnc(N)c34)[nH]c12 [OSI-027] (partner 0.5 µM)
Summary of the method: as §1

[5] = compound: CO[C@H]1C[C@@H]2CC[C@@H](C)[C@@](O)(O2)C(=O)C(=O)N2CCCC[C@H]2C(=O)O[C@H]([C@H](C)C[C@@H]2CC[C@@H](OCCO)[C@H](OC)C2)CC(=O)[C@H](C)/C=C(\C)[C@@H](O)[C@@H](OC)C(=O)[C@H](C)C[C@H](C)/C=C/C=C/C=C/1C [Everolimus] + COc1cc2c(Oc3ccc(NC(=O)C4(C(=O)Nc5ccc(F)cc5)CC4)cc3F)ccnc2cc1OCCCN1CCOCC1 [Foretinib] (partner 0.25 µM)
Summary of the method: as §1

[6] = compound: CO[C@H]1C[C@@H]2CC[C@@H](C)[C@@](O)(O2)C(=O)C(=O)N2CCCC[C@H]2C(=O)O[C@H]([C@H](C)C[C@@H]2CC[C@@H](OCCO)[C@H](OC)C2)CC(=O)[C@H](C)/C=C(\C)[C@@H](O)[C@@H](OC)C(=O)[C@H](C)C[C@H](C)/C=C/C=C/C=C/1C [Everolimus] + N=C(N)NC(=N)NCCc1ccccc1 [Phenformin] (partner 250 µM)
Summary of the method: as §1

[7] = compound: CO[C@H]1C[C@@H]2CC[C@@H](C)[C@@](O)(O2)C(=O)C(=O)N2CCCC[C@H]2C(=O)O[C@H]([C@H](C)C[C@@H]2CC[C@@H](OCCO)[C@H](OC)C2)CC(=O)[C@H](C)/C=C(\C)[C@@H](O)[C@@H](OC)C(=O)[C@H](C)C[C@H](C)/C=C/C=C/C=C/1C [Everolimus] + Cc1nc(Nc2ncc(C(=O)Nc3c(C)cccc3Cl)s2)cc(N2CCN(CCO)CC2)n1 [Dasatinib] (partner 0.075 µM)
Summary of the method: as §1

Cell Line NCI-H1623 has a relative viability ([1]; 0.01 µM) of 0.773, a relative viability ([1]; 0.03162 µM) of 0.622 and a relative viability ([1]; 0.1 µM) of 0.595. For the same cell line, the relative viability ([1]; 0.3162 µM) was 0.581, the relative viability ([1]; 1 µM) was 0.514 and the relative viability ([2]; first compound 0.01 µM) was 0.411. It also gave a relative viability ([2]; first compound 0.03162 µM) of 0.396, a relative viability ([2]; first compound 0.1 µM) of 0.39 and a relative viability ([2]; first compound 0.3162 µM) of 0.381. The relative viability ([2]; first compound 1 µM) was 0.385, the relative viability ([3]; first compound 0.01 µM) was 0.467 and the relative viability ([3]; first compound 0.03162 µM) was 0.336. For the same cell line, the relative viability ([3]; first compound 0.1 µM) was 0.307, the relative viability ([3]; first compound 0.3162 µM) was 0.326 and the relative viability ([3]; first compound 1 µM) was 0.296. The relative viability ([4]; first compound 0.01 µM) was 0.408, the relative viability ([4]; first compound 0.03162 µM) was 0.395 and the relative viability ([4]; first compound 0.1 µM) was 0.362. It also gave a relative viability ([4]; first compound 0.3162 µM) of 0.384, a relative viability ([4]; first compound 1 µM) of 0.372 and a relative viability ([5]; first compound 0.01 µM) of 0.721. For the same cell line, the relative viability ([5]; first compound 0.03162 µM) was 0.831, the relative viability ([5]; first compound 0.1 µM) was 0.53 and the relative viability ([5]; first compound 0.3162 µM) was 0.511. It also gave a relative viability ([5]; first compound 1 µM) of 0.563, a relative viability ([6]; first compound 0.01 µM) of 0.466 and a relative viability ([6]; first compound 0.03162 µM) of 0.622. For the same cell line, the relative viability ([6]; first compound 0.1 µM) was 0.444, the relative viability ([6]; first compound 0.3162 µM) was 0.444 and the relative viability ([6]; first compound 1 µM) was 0.512. For the same cell line, the relative viability ([7]; first compound 0.01 µM) was 0.388, the relative viability ([7]; first compound 0.03162 µM) was 0.566 and the relative viability ([7]; first compound 0.1 µM) was 0.317. The relative viability ([7]; first compound 0.3162 µM) was 0.352 and the relative viability ([7]; first compound 1 µM) was 0.382.
